# Measurements: patent publication US8222487B2, “Application of ERF genes from Bupleurum kaoi” (National Tsing Hua University, priority 2009, dated 2012)
# What was measured:
# [1] = test system: B. kaoi adventitious roots; assay: Measurement of H2O2 in adventitious roots; format: cell-based, Bupleurum kaoi; conditions: 500 μM MeJA; during 5 weeks culture
# Method: To test whether MeJA caused oxidative stress, the H2O2 level was measured as described below. H2O2 was extracted by homogenizing 0.3 to 0.5 g of adventitious roots with 3 ml phosphate buffer (50 mM, pH6.8) and centrifuged at 6000×g for 25 min. A 2 ml extract was mixed with 1 ml 0.1% titanium sulfate in 20% H2SO4 (v/v), and centrifuged at 6000×g for 15 min. The optical density of the supernatant was measured at 410 nm using an equal volume of phosphate buffer as a blank. […] The MDA level was colorimetrically measured as described below. MDA was extracted by homogenizing 0.3 to 0.5 g adventitious roots with 2 ml 5% trichloroacetic acid, and centrifuged at 10,000×g for 5 min at 20° C. A mixture of 1 ml supernatant with 4 ml 0.5% thiobarbituric acid in 20% trichloroacetic acid was heated in a 95° C. water bath for 30 min and centrifuged for 10 min at 2000×g to remove haziness. Optical density of the supernatant was measured at 532 nm and 600 nm using 1 ml 5% trichloroacetic acid to replace supernatant as a blank.
# [2] = test system: B. kaoi adventitious roots; assay: cDNA microarray of MeJA-responsive genes in adventitious roots; format: cell-based, Bupleurum kaoi; conditions: 500 μM MeJA; microarray analysis
# Method: Adventitious root cultures were induced from the roots of germ-free seedlings of B. kaoi and were subcultured every 6 weeks by adding 0.2 g roots to a 125 ml flask containing 50 ml of B5 liquid medium supplemented with 2 mg 1^−1 NAA. Cultures were shaken using a rotary shaker at 100 rpm at 25° C. in the dark. To quantify the effect of MeJA on saikosaponin level, adventitious roots were treated with 500 and 1000 μM MeJA 2 weeks after subculture. Total saikosaponin was measured 2 weeks after MeJA treatment. To monitor expression of MeJA-responsive genes, the nutrient medium was refreshed 4 weeks after subculture and MeJA (500 μM) was applied 2 weeks after refreshment. Roots were harvested at 13 time points (5 min; 1, 2, 8, 24 hours; 2, 4, 6, 8 days; 2, 3, 4, 5 weeks) after the addition of the MeJA. […]
# The DNA microarray data were imported into GeneSpring 7.2 (Silicon Genetics) for further analyses. […] The coefficient of variation was calculated by dividing the standard deviation by the mean. Net intensities of both channels were calculated by subtraction of the median fluorescent intensity of the background from the mean fluorescent intensity of each feature. […] Fold change was calculated for each gene by dividing the average intensity of MeJA-treated samples by the average intensity of the corresponding control samples. […]
# [3] = test system: B. kaoi adventitious roots; assay: Fresh weight and appearance of adventitious roots after MeJA; format: cell-based, Bupleurum kaoi
# Method: FIG. 1 Effect of MeJA on fresh weight and appearance of B. kaoi adventitious roots. (A) Four weeks after subculture, the nutrient medium of B. kaoi adventitious roots was refreshed. MeJA (500 μM) was applied 2 weeks after refreshment. The fresh weights of adventitious roots were measured at 13 time points after MeJA treatment as indicated. (B) Adventitious roots treated with MeJA began to show dark brownish pigmentation after 2 weeks. Each panel is a representative of the adventitious roots at the indicated time points. The left and right flasks for each sub-panel indicate the control and MeJA treated adventitious roots, respectively. (C) H2O2 level and (D) MDA level were measured at the indicated time. Vertical bars indicate S.E. of the mean for n=3.
# Adventitious root cultures were induced from the roots of germ-free seedlings of B. kaoi and were subcultured every 6 weeks by adding 0.2 g roots to a 125 ml flask containing 50 ml of B5 liquid medium supplemented with 2 mg 1^−1 NAA. Cultures were shaken using a rotary shaker at 100 rpm at 25° C. in the dark. To quantify the effect of MeJA on saikosaponin level, adventitious roots were treated with 500 and 1000 μM MeJA 2 weeks after subculture. Total saikosaponin was measured 2 weeks after MeJA treatment. […]
# [4] = test system: cell suspension cultures of Medicago truncatula; conditions: 5 μM MeJA for 2 h; cited from earlier work
structure (smiles),measurement,setting,value
"CC/C=C\CC1C(=O)CCC1CC(=O)OC (centres unmarked) [MeJA, Methyl jasmonate]",H2O2 levels in the adventitious roots,[1],did not significantly change
same,"Two BkP450 genes (AM421810, AM421812) increase",[2],2 fold
same,Appearance of roots (pigmentation),"[3]; 500 μM MeJA, 2 weeks later, compared to control",marked pigmentation
same,Growth of adventitious roots (fresh weight),[3]; 8 days after 500 μM MeJA treatment,retarded
same,PAL transcripts induction,[4],3 fold
